Laboratory results published in publication PMC8921294, “Inhibition of mitochondrial LonP1 protease by allosteric blockade of ATP binding and hydrolysis via CDDO and its derivatives” (The Journal of Biological Chemistry, 2022).

Tests used:
Human LonP1 protease = molecular target: T1, Human LonP1 protease (Homo sapiens, UniProt P36776); assay: FITC-casein protease assay (ATP-dependent proteolysis); type: biochemical; settings: for Inhibition of LonP1-mediated degradation of FITC-casein: 30 min preincubation at 30 °C, ATP 4 mM; for Preincubation time after which ATP-dependent proteolysis is inhibited: preincubation at 30 °C
T1 construct: hexa-histidine (N); made in house; host or cells: Rosetta 2 E. coli
T1 sequence (P36776 68-959): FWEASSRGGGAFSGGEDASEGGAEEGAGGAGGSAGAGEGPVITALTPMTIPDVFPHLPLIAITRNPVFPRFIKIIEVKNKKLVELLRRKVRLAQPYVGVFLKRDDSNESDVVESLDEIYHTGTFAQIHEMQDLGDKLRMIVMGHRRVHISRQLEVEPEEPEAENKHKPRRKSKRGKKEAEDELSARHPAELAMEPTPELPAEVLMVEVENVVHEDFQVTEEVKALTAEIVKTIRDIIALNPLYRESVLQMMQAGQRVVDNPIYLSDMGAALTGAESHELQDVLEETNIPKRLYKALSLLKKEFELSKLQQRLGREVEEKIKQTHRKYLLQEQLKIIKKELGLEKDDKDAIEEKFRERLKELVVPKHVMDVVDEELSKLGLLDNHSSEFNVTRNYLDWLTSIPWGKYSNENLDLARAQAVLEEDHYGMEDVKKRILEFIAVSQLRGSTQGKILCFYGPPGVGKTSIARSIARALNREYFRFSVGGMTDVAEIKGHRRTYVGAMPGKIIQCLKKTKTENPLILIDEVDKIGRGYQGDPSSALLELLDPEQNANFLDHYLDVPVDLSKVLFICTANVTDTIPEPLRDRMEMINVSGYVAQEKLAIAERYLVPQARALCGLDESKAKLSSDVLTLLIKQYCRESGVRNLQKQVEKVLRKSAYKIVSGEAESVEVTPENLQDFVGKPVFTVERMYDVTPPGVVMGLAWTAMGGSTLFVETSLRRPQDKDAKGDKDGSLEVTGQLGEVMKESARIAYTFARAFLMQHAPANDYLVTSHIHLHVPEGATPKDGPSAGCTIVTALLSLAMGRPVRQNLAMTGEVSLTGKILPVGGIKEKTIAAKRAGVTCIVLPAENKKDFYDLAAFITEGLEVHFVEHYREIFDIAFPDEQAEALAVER
Description: Human LonP1 (1.0 μM monomer) was preincubated with CDDO derivatives, TP-82, enoxolone (5 μM) or DMSO vehicle control (1%) in buffer (150 mM NaCl, 50 mM Hepes-KOH pH 8.0, 10 mM MgCl2, 0.1 mg/ml BSA) for 30 min at 30 °C. Reactions were initiated by the addition of FITC-casein (0.1 mg/ml) and ATP (4.0 mM) and incubated at 37 °C. The kinetics of FITC-casein degradation was measured by the increase in relative fluorescence units (RFU) at 490–525 nm wavelength at 37 °C using a Spectramax or Biotek Synergy plate reader. For endpoint assays, aliquots of reactions incubated at 37 °C were removed at indicated time points and terminated by adding 5X reducing sample buffer (RSB). The decrease of intact FITC-casein was determined by SDS-PAGE followed by visualization using FluorChem or Chemi-Doc systems.
Reactions (500 μl) containing LonP1 (1.0 μM monomer) in buffer (150 mM NaCl, 50 mM Hepes-KOH pH 8.0, 10 mM MgCl2) were preincubated with CDDO-Me (10 μM) or DMSO (1%) for 60 min at 30 °C. After this period, respective aliquots (50 μl) were removed and assayed for FITC-casein degradation to confirm inhibition by CDDO-Me. The remaining 450 μl reaction was transferred to a Slide-A-Lyzer (100 kDa MWCO) and dialyzed against 500 ml Buffer K (50 mM Hepes KOH, pH 8.0, 150 mM NaCl, 10 mM MgOAc2, 20% glycerol) for 24 h at 4 °C. After this period, the protein concentration was measured to determine protein recovery and the protease activity of LonP1, which had been preincubated with and without CDDO-Me was measured using the FITC-casein degradation assay.

26S proteasome = assay: 26S proteasome-dependent degradation of p53 in HeLa ρ^0 cells (immunoblot); type: cell-based, human; settings: 7 h
Excerpt: LonP1 belongs to the AAA^+ superfamily of ATPases Associated with diverse cellular Activities, which mediate various cellular processes such as DNA replication, recombination, chromatin remodeling, ribosomal RNA processing, membrane fusion as well as ATP-dependent proteolysis ([48]). The 26S proteasome consists of the 20S proteolytic core particle, which mediates peptide bond hydrolysis and the 19S regulatory particle containing ATPases belonging to the AAA^+ family ([49]). […] We sought to test the apparent selectivity of CDDO derivatives for LonP1 but not the 26S in cultured cells. There are no known proteins that are constitutively degraded by LonP1 under baseline conditions, which would permit us to assay protease inhibition by CDDO derivatives. Therefore, we employed experimentally derived HeLa cells lacking mitochondrial DNA (mtDNA) (referred to as HeLa ρ^0 cells) ([50]), in which LonP1 constitutively degrades mitochondrial transcription factor A (TFAM) ([6]). When TFAM fails to bind mtDNA (e.g., when mtDNA is absent), it is rapidly degraded by LonP1, thus providing a readout for protease activity ([6]). An advantage of using this system is that HeLa cells express the human papillomavirus (HPV) E6 protein, which promotes constitutive degradation of p53 by the 26S proteasome. Thus, the effects of CDDO derivatives on LonP1 and the 26S proteasome can be examined in parallel.
HeLa cells devoid of mitochondrial DNA (HeLa ρ^0) and LCL cells were generated as described previously ([50]). DMEM, RPMI, and fetal bovine serum were purchased from Sigma. All cells were grown with 5% CO2 at 37 °C. LCL cells were cultured in RPMI supplemented with 15% FBS. HeLa Rho 0 cells were cultured in high glucose DMEM (25 mM) (Sigma) supplemented with sodium pyruvate ([…]) and uridine ([…]). CDDO-Me was purchased from Cayman chemicals, and CDDO-AH was synthesized as described previously ([20]). […]

Inhibition of LonP1-mediated degradation of FITC-casein (Human LonP1 protease)	Preincubation time after which ATP-dependent proteolysis is inhibited (Human LonP1 protease)	Reversibility: proteolytic activity after dialysis (Human LonP1 protease; 10 μM, dialysis at 4 °C for 24 h)	Degradation of FITC-casein before dialysis (Human LonP1 protease; 10 μM, preincubation 60 min at 30 °C)	SMILES	Protein levels of p53 (26S proteasome; 1 μM)	26S proteasome-dependent degradation of p53 (26S proteasome; 0.125 to 0.5 μM)	26S proteasome-mediated degradation of p53 (26S proteasome; 20 μM)
inhibit	≥ 20 min	–	–	CC1(C)CC[C@]2(C(=O)O)CC[C@]3(C)[C@H](C(=O)C=C4[C@@]5(C)C=C(C#N)C(=O)C(C)(C)[C@@H]5CC[C@]43C)[C@@H]2C1 [CDDO, 2-cyano-3,12-dioxooleana-1,9(11)-dien-28-oic acid]	–	–	–
inhibit	5 min	restored proteolytic activity	completely block	COC(=O)[C@]12CCC(C)(C)C[C@H]1[C@H]1C(=O)C=C3[C@@]4(C)C=C(C#N)C(=O)C(C)(C)[C@@H]4CC[C@@]3(C)[C@]1(C)CC2 [CDDO-Me]	increased	did not block	–
–	–	–	–	CC1(C)CC[C@]2(C(=O)OC(=O)[C@]34CCC(C)(C)C[C@H]3[C@H]3C(=O)C=C5[C@@]6(C)C=C(C#N)C(=O)C(C)(C)[C@@H]6CC[C@@]5(C)[C@]3(C)CC4)CC[C@]3(C)[C@H](C(=O)C=C4[C@@]5(C)C=C(C#N)C(=O)C(C)(C)[C@@H]5CC[C@]43C)[C@@H]2C1 [CDDO-anhydride]	–	–	did not block
